Test results: US7135182B2, “Inhibition of transglutaminase-mediated microbial interaction with a mammalian host” (priority 1998, dated 2006)

How the values were obtained:
[1] = molecular target: T1, guinea pig liver transglutaminase (UniProt P08587); test: Fluorescence assay of transglutaminase-catalyzed cross-linking of 5-(biotinamido)pentylamine to C. albicans germ tube surfaces; assay type: biochemical; settings: C. albicans SC5314 germ tubes; EGTA 20 mM (FIG. 2B)
T1 construct: guinea pig liver transglutaminase (8.5 μg); from tissue; host or cells: guinea pig liver
T1 sequence (P08587 whole entry): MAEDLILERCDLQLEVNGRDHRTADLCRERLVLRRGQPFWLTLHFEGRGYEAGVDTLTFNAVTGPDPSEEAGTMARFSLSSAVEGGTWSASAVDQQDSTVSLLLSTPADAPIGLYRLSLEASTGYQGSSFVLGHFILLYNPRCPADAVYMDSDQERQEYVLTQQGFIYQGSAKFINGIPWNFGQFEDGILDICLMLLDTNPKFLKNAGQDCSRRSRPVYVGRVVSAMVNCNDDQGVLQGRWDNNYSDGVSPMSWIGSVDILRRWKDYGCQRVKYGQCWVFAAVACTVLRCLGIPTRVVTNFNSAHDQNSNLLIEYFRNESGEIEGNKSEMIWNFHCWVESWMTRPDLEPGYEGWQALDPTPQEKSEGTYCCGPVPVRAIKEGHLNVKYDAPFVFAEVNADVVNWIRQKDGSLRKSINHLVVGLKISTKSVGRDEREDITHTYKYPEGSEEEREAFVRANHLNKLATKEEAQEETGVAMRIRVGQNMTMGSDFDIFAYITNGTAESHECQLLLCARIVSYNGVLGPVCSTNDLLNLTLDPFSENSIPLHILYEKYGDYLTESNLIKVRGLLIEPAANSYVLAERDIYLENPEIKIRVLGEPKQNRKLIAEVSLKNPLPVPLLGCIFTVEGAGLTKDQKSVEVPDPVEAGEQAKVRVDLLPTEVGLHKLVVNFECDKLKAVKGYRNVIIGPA
Procedure: To detect germ tube surface proteins serving as glutamine donors in transglutaminase-catalyzed cross-linking reactions, a fluorescence assay using a biotinylated lysine analogue as the primary amine acceptor and liver transglutaminase was developed.
Washed M199-germinated C. albicans cells (10^8/ml), guinea pig liver transglutaminase (8.5 μg), and 5-(biotinamido)pentylamine (30 μM) (Pierce) were incubated in reaction buffer 1 (400 μl) (100 mM Tris-Cl pH 7.5, 5 mM CaCl2, 1 mM DTT, 2 mM EDTA) for 15 minutes at 37° C. Reactions were stopped with EDTA (10 mM), germ tubes were washed with distilled water, spotted onto microscope slides, air dried, incubated with avidin-FITC (1:100) (Zymed) and BSA-rhodamine (1:30) (Difco) in PBS at 37° C., washed and examined by fluorescence microscopy.

[2] = system: adhesion of C. albicans germ tubes (UnoPP-1) to human buccal epithelial cells (BECs); test: Stabilized (covalent) adhesion of radiolabeled C. albicans germ tubes to human buccal epithelial cells; assay type: cell-based, Candida albicans
Procedure: Mass conversion of yeasts, radiolabeled with Tran^35S-label (ICN) (5 μCi/ml), to germ tubes (5×10^6/ml) was induced in prewarmed M199 (40 ml) for 2.5 hours at 37° C. No differences in the proportion of (>95%) germ tubes or in germ tube length were seen among strains. Washed germ tubes and BECs from a healthy donor, suspended in 300 μl of reaction buffer 3 (50 mM Tris-Cl pH 7.5, 10 mM CaCl2, 1 mM EDTA, 1 mM DTT), at a germ tube/BEC ratio of 100:1, were mixed, incubated for 1 hour at 37° C. followed by reaction termination with 100 mM EGTA (75 μl). The BEC donors understood the nature of the studies and consented to provide BECs. Radioactivity of BEC fractions was determined by scintillation counting after centrifugation on 50% Percoll gradients, and germ tubes per BEC was determined using the specific activity of each strain. Background counts, determined from gradients with germ tubes only, were less than 6% of counts for germ tube/BEC mixtures and were subtracted from counts of epithelial cell-germ tube mixtures. […]
Radiolabeled germ tubes of the control strain, UnoPP-1, were incubated with BECs at a ratio of 100:1 with or without 5 or 10 mM monodansylcadaverine in reaction buffer 3, supra. […] The cell mixtures were incubated for 1 hour at 37° C., and the number of germ tubes covalently attached to BECs were determined. […]

Row | Compound | effect on transglutaminase-mediated fluorescence labelling of germ tubes [1] | stabilized adhesion of UnoPP-1 to BECs with transglutaminase inhibited ([2]; iodoacetamide 10 mM, BECs pretreated 15 minutes, CAH7-1A was 23% of UnoPP-1) | reduction of adhesion of germ tubes to BEC relative to DMSO control ([2]; 5 or 10 mM, UnoPP-1 germ tubes/BEC 100:1, 1 hour at 37° C., covalently attached germ tubes)
1 | NC(=O)CI [iodoacetamide] | inhibited | low level of stabilized adhesion of CAH7-1A was equivalent to that of UnoPP-1 | 
2 | O=C(O)CN(CCOCCOCCN(CC(=O)O)CC(=O)O)CC(=O)O [EGTA] | inhibited |  | 
3 | CN(C)c1cccc2c(S(=O)(=O)NCCCCCN)cccc12 [monodansylcadaverine] |  |  | approximately 87%
